Experimental data taken from patent publication US20090142735A1, “Bacterial intraoral disease treatment composition, washing treatment solution, hemostatic treatment solution, and bacterial intraoral disease treatment method” (priority 2005, published 2009).

Experiment: Test Example 1: penetrability of the base (migration of food red from the drug application seat)
Type: physicochemical
Conditions: 100% humidity, root embedded in gypsum block
Text: FIG. 7 depicts a cross-sectional view of a sample 50 according to the present test example. First, the mandibular first premolar affected with apical periodontitis was drilled with a #70 […] to enlarge the root canal and further the root canal 51 was filled using a gutta-percha point and a sealer, and by pressing them sideways. […] At the bottom of this drug application seat 52, two small pieces 53 (about 1.0 mm in diameter) of each base shown in Table 1 added with food red were loaded. Furthermore, cotton ball (not shown) was placed so as to cover these small pieces 53, and “Caviton (registered trade mark)” (G C Co., Ltd.) was layered over this cotton ball to form the covering layer 54, thereby preparing the sample 50. After the root portion of each sample 50 was embedded in an ordinary gypsum block 55, it was stored under 100% humidity. Migration distances of food red from the drug application seat for storing times of 24 hours and 48 hours were measured to assess the penetrability of the base contained in each sample. In this case, the migration distance was determined as the longest distance in the direction of depth (in the direction of the arrow D in FIG. 7) of the area reached by coloring due to food red when the sample 50 was observed from outside.

Migration distance of food red from drug application seat (depth direction) (storing time 24 hours) [mm]	Migration distance of food red from drug application seat (depth direction) (storing time 48 hours) [mm]	Structure (SMILES)
2.0	3.5	CC(O)CO (stereo not drawn) [Sample 2, Propylene glycol]
5.0	7.0	OCC(O)CO [Sample 6, Glycerin]

Structure (SMILES)	Migration distance of food red from drug application seat (depth direction) (storing time 24 hours) [mm]	Migration distance of food red from drug application seat (depth direction) (storing time 48 hours) [mm]
O [Sample 1, Water]	2.0	4.0
